Test results from patent publication US12496304B2, “Selective glucocorticoid receptor modifiers for treating impaired skin wound healing” (AKRIBES BIOMEDICAL GMBH, priority 2019, dated 2025).

Assays:
IL-1β = IL-1β secretion into the supernatant in the fibroblast proliferation assay (ELISA); type: cell-based, human; conditions: WE-1 (FIG. 2B, 9B), graded concentrations
Protocol: Primary human dermal fibroblasts (HDF) were purchased from CELLnTEC, Bern. They were routinely grown in Dulbecco's modified Eagle's medium (DMEM) containing 10% FCS, 2 mM glutamine, and 100 U/ml penicillin/100 μg/ml streptomycin. Media, antibiotics, and glutamine were bought from Lonza. The cells were used at passage 5-15. Cells were trypsinized and seeded at 2500 cells/well in 30 μl into the inner wells of 384-well plates in the absence or presence of graded compound concentrations with or without different dilutions of sterile-filtered WE in medium. For control samples, 30 μl medium was added instead of specific stimuli. The outer wells were loaded with sterile water. The cells were incubated for 72 hours at 37° C.
At the end of the incubation period, supernatants were removed for the determination of IL-1β, and the cells were fixed with 4% paraformaldehyde (Morphisto) for 15 minutes at room temperature and washed 3 times with PBS. A control plate was fixed after the overnight adherence of the cells (day 1) to determine the starting cell number.
IL-1β levels were determined with a commercial ELISA kit. The amount of IL-1β contained in the wound exudate added to the cells was subtracted from the total IL-B in the supernatants in order to determine the cytokine secreted by the cells.

Collagen 3a = assay: mRNA expression in fibroblast cultures (qRT-PCR): collagen 3; type: cell-based, human
Protocol: (§1) Cells were seeded into 24-well plates and incubated with compounds in the presence or absence of wound exudates for 72 hours. Total RNA was isolated using the RNeasy Mini Kit (QIAGEN #74106) according to the manufacturer's protocol. RNA integrity and concentration for each sample was confirmed and measured with the Qubit fluorometer. Each RNA sample was then diluted to 2 ng/μl in nuclease-free doubly distilled water.
(§2) 20 ng of total RNA were reverse-transcribed into cDNA and immediately subjected to PCR amplification using the SuperScript Ill Platinum One-Step Quantitative RT-PCR System with ROX (Invitrogen #11745). qRT-PCR amplifications were performed in 20 μl reactions containing 9 μl 2× Reaction Mix with ROX, 0.4 μl SuperScript III RT/Platinum Taq Mix and 1 μl primer (final: 900 nM, Taqman Gene Expression Assay, Applied Biosystems)
(§3) The program included 30 minutes of reverse transcription at 48° C., an initial denaturation for 5 minutes at 95° C. followed by 40 cycles of denaturation at 95° C. for 15 seconds and annealing at 60° C. for 60 seconds. Reactions were set up in 96-well format PCR plates (Peqlab #732-2879) and carried out in a Mx3005P Real-Time PCR Detection System (Stratagene).
(§4) TaqMan Gene Expression Assays (Applied Biosystems) were used, which include preoptimized probe and primer sets specific for the genes being validated. The sequences and ID numbers are listed below:
(§5) The house keeping gene elongation factor 1a (EF1a) was used as a reference gene. Normalized expression was calculated using the comparative Ct (or ΔCt) method, and fold changes were derived from the 2-ΔΔCt values for each gene. Graphs were prepared using relative Ct values that were calculated by subtracting the EF1a Ct values from the corresponding Ct values for the gene being measured.

IL-8 [1] = assay: U937 cell stimulation assay (LPS-induced IL-8); type: cell-based, human; conditions: LPS 100 ng/ml, 16 hours (FIG. 16A)
Protocol: The human monocytic cell line U937 (ATCC CRL 1593) was routinely grown in RPMI_1640 supplemented by 10% FCS and 2 mM glutamine, and 100 U/ml penicillin/100 μg/ml streptomycin. Cells were seeded at 4×10^5/ml in 50 μl/well of a 384-well plate and combined cells with graded concentrations of test compounds and LPS at 100 ng/ml. After 16 hours, the supernatants were transferred to fresh plates and frozen at −20° C. for IL-8 analysis, using a commercial ELISA kit.

IL-8 [2] = assay: Primary human monocyte cytokine secretion assay (spontaneous IL-8); type: cell-based; conditions: 16 hours (FIG. 16B)
Protocol: Primary human monocytes were prepared from peripheral blood mononuclear cells (PBMC). PBMC were isolated from buffy coats obtained from the Red Cross, Vienna, using LymphoPrep (Technoclone). 30 ml of buffy concentrate was diluted 1:2 with PBS, gently underlayered with 15 ml Lymphoprep in a 50 ml Falcon tube and centrifuged for 25 minutes at 1800 rpm at 21° C. The interphase was carefully transferred to a new Falcon tube and filled up to 50 ml with ice cold PBS. After another centrifugation step (10 minutes, 1200 rpm, 4° C.), the cell pellet was washed 3 times with PBS, resuspended in RPMI medium containing 20% FCS and 10% DMSO and frozen in liquid nitrogen. Monocytes were generated from frozen aliquots using positive selection with the CD14 Beads-Kit (Miltenyi) on an autoMACS-Sorter (Miltenyi) according to the manufacturer's instructions.
Cells were seeded at 8×10^5/ml in 50 μl/well of a 384-well plate and combined cells with graded concentrations of test compounds. After 16 hours, the supernatants were transferred to fresh plates and frozen at −20° C. for IL-8 analysis, using a commercial ELISA kit.

Collagen 1a = assay: mRNA expression in fibroblast cultures (qRT-PCR): collagen 1; type: cell-based, human
Protocol: as §1, §2, §3, §4, §5

[3] = system: human dermal fibroblast (HDF) cells; assay: Fibroblast-derived matrix formation (FDM) assay, 3D fibroblast culture; type: cell-based
Protocol: Human dermal fibroblast (HDF) cells were seeded at 1250 cells/well on day −3 into 384-well tissue culture plates, which had been pre-coated for 1 hour at 37° C. with 0.2% gelatin solution (Sigma). When the cells reached confluence (=day 0), a matrix promoting supplement (vitamin C: 2-phospho-L-ascorbic acid trisodium salt, 100 μg/ml; Sigma) was added together with test samples containing TGF-β1 or graded concentrations of compounds −/+WE as described for the HDF proliferation assay. After 4 days, medium was replaced by fresh vitamin C—and stimulus—as well as compound-containing medium, maintaining the conditions initiated on day 0. TGF-β1 was included as a positive control to promote FDM formation. After a total incubation time of 7 to 8 days, FDM production was measured in fixed cultures via SRB staining and evaluated as described above. In some cases, the experiment was stopped and evaluated already on day 4.

[4] = medium in the absence of WE, 72-hour incubation

SMILES: CCS(=O)(=O)c1cc2cc(C[C@@](O)(CC(C)(C)c3ccc(F)cc3C(N)=O)C(F)(F)F)[nH]c2cn1 [BI-3047]
- IL-1β secretion into the supernatant (IL-1β): much less effect on IL-1β secretion
- collagen 3 mRNA expression (Collagen 3a; [4]): reduction of collagen 3 mRNA with medium
- LPS-induced IL-8 secretion in U937 cells (IL-8 [1]): even induced IL-8 secretion at the highest concentrations
- spontaneous IL-8 secretion in human monocytes (IL-8 [2]): even induced IL-8 secretion at the highest concentrations
- collagen 1 mRNA expression (Collagen 1a; [4]): no significant effect on collagen 1 mRNA in the presence of medium
- formation of fibroblast-derived matrix (3D) ([3]; WE from patient #92 (FIG. 12)): did not induce matrix formation

SMILES: CCS(=O)(=O)c1cc2cc(C[C@](O)(CC(C)(C)c3ccc(F)cc3C(N)=O)C(F)(F)F)[nH]c2cn1 [BI-653048, (R)-2-(4-((5-(Ethylsulfonyl)-1H-pyrrolo[2,3-c]pyridin-2-yl)methyl)-5,5,5-trifluoro-4-hydroxy-2-methylpentan-2-yl)-5-fluorobenzamide]
- IL-1β secretion into the supernatant (IL-1β): inhibited IL-1β secretion at the same concentrations
- collagen 3 mRNA expression (Collagen 3a; WE-2, 1 μM, 72-hour incubation (FIG. 3B)): induced mRNA expression of both collagens 1 and 3 in the presence of wound exudate
- collagen 3 mRNA expression (Collagen 3a; [4]): reduction of collagen 3 mRNA with medium
- LPS-induced IL-8 secretion in U937 cells (IL-8 [1]): inhibited both LPS-induced and spontaneous IL-8 secretion
- spontaneous IL-8 secretion in human monocytes (IL-8 [2]): inhibited both LPS-induced and spontaneous IL-8 secretion
- collagen 1 mRNA expression (Collagen 1a; WE-2, 1 μM, 72-hour incubation (FIG. 3A)): induced mRNA expression of both collagens 1 and 3 in the presence of wound exudate
- collagen 1 mRNA expression (Collagen 1a; [4]): no significant effect on collagen 1 mRNA in the presence of medium
- formation of fibroblast-derived matrix (3D) ([3]; WE-1, graded concentrations (FIG. 4)): effective in inducing matrix formation in the presence of wound exudate
